Experimental data as given in the supplement of paper PMC10307832.

Columns and labels:
Assay in all cases: relative viability (nuclei count vs DMSO), 5 days (fraction); higher = more cells survive
[1] = compound: CC(C)(C)c1nc(-c2cccc(NS(=O)(=O)c3c(F)cccc3F)c2F)c(-c2ccnc(N)n2)s1 [Dabrafenib] + COc1cccc2cc(-c3nc([C@H]4CC[C@H](C(=O)O)CC4)n4ncnc(N)c34)[nH]c12 [OSI-027] (partner 0.5 µM)
Summary of the method: (§1)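 Lung cancer cell lines in 1536-well plates got either a single drug or a fixed anchor-drug dose together with five library-drug doses (not always all listed) in √10 steps, by pin tool, on the day after seeding. Nuclei were counted after 5 days, and relative viability is the treated-to-vehicle ratio of nuclei counts. Values are medians of duplicate plates.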

[2] = compound: CC(C)(C)c1nc(-c2cccc(NS(=O)(=O)c3c(F)cccc3F)c2F)c(-c2ccnc(N)n2)s1 [Dabrafenib] + C[C@]1(O)C[C@@H](c2nc(-c3ccc4ccc(-c5ccccc5)nc4c3)c3c(N)nccn32)C1 [Linsitinib] (partner 1 µM)
Summary of the method: as §1

[3] = compound: CC(C)(C)c1nc(-c2cccc(NS(=O)(=O)c3c(F)cccc3F)c2F)c(-c2ccnc(N)n2)s1 [Dabrafenib] + N=C(N)NC(=N)NCCc1ccccc1 [Phenformin] (partner 250 µM)
Summary of the method: as §1

[4] = compound: NC(=O)c1ccc(N(C(N)=O)c2c(F)cccc2F)nc1-c1ccc(F)cc1F [VX-702] + CCNC(=O)c1noc(-c2cc(C(C)C)c(O)cc2O)c1-c1ccc(CN2CCOCC2)cc1 [Luminespib] (partner 0.01 µM)
Summary of the method: as §1

Cell Line	relative viability ([1]; first compound 0.003 µM)	relative viability ([1]; first compound 0.009487 µM)	relative viability ([1]; first compound 0.03 µM)	relative viability ([1]; first compound 0.09487 µM)	relative viability ([1]; first compound 0.3 µM)	relative viability ([2]; first compound 0.003 µM)	relative viability ([2]; first compound 0.009487 µM)	relative viability ([2]; first compound 0.03 µM)	relative viability ([2]; first compound 0.09487 µM)	relative viability ([2]; first compound 0.3 µM)	relative viability ([3]; first compound 0.003 µM)	relative viability ([3]; first compound 0.009487 µM)	relative viability ([3]; first compound 0.03 µM)	relative viability ([3]; first compound 0.09487 µM)	relative viability ([3]; first compound 0.3 µM)	relative viability ([4]; first compound 0.02 µM)	relative viability ([4]; first compound 0.2 µM)	relative viability ([4]; first compound 0.6325 µM)	relative viability ([4]; first compound 2 µM)
201T	0.306	0.786	0.642	0.656	0.808	0.918	1.07	0.941	1.03	1.05	0.423	0.428	0.372	0.41	0.465	1	1.04	0.992	1.07
A549	–	–	–	–	–	–	0.549	0.374	0.697	0.568	–	0.18	0.191	0.173	0.151	–	–	–	–
A-427	–	0.351	0.518	0.379	0.474	–	1.13	1	0.949	1.1	–	0.292	0.273	0.276	0.378	0.715	0.919	0.823	0.774
ABC-1	0.442	0.42	0.496	0.537	0.507	–	0.81	0.841	0.892	0.861	0.214	0.233	0.254	0.232	0.209	0.518	0.48	0.567	0.894
BEN	–	0.332	–	0.305	0.269	–	0.986	–	0.883	0.938	–	0.257	–	0.272	0.242	0.374	0.221	0.49	0.331
CAL-12T	0.523	0.68	0.902	0.566	0.645	0.744	0.901	0.786	0.777	0.963	0.584	0.51	0.601	0.572	0.677	0.565	0.574	0.318	0.363
COR-L23	0.768	0.803	0.732	0.6	0.61	0.997	0.974	0.843	0.886	0.883	0.466	0.425	0.431	0.396	0.431	0.749	0.719	0.688	0.761
COR-L 105	0.6	0.786	0.58	0.722	0.906	0.959	0.943	0.908	0.88	1.07	0.497	0.507	0.417	0.492	0.547	0.688	0.715	0.78	0.91
Calu-6	–	–	–	–	–	0.939	0.951	0.72	0.737	0.675	–	–	–	–	–	–	–	–	–
ChaGo-K-1	0.209	0.53	0.502	0.504	0.651	–	–	–	–	–	0.315	0.446	0.472	0.418	0.556	0.657	0.46	0.586	0.678
EBC-1	–	–	–	–	–	0.854	0.867	0.679	0.378	0.309	–	–	–	–	–	–	–	–	–
EKVX	0.649	0.79	0.693	0.652	0.729	0.997	1.17	0.933	0.866	1.13	0.147	0.227	0.187	0.196	0.236	0.899	0.822	0.878	0.942
EMC-BAC-2	0.359	0.376	0.301	0.295	0.329	0.773	0.825	0.616	0.838	0.851	0.518	0.563	0.364	0.418	0.548	1.13	1.13	1.13	1.23
EPLC-272H	0.234	0.371	0.31	0.258	0.249	–	1.36	1.02	0.939	0.918	0.211	0.331	0.406	0.267	0.332	0.344	0.694	0.352	0.272
H3255	0.572	0.579	0.62	0.56	0.583	0.944	1.06	1.01	0.832	1.03	0.345	0.444	0.338	0.391	0.383	1.09	0.803	0.957	1.11
HARA	0.262	0.618	–	0.327	0.864	0.973	0.869	0.841	0.905	1.3	0.448	0.46	–	0.364	0.511	0.743	0.75	0.58	0.947
HCC-15	0.547	0.695	0.67	0.53	0.622	0.851	0.996	0.917	0.821	0.951	0.461	0.461	0.528	0.401	0.382	0.26	0.295	0.288	0.349
HCC-44	0.45	0.614	0.511	0.478	0.591	0.624	0.706	0.822	0.605	0.701	–	0.173	0.183	0.227	0.235	0.84	0.983	0.909	1.48
HCC-78	–	0.36	0.334	0.354	0.38	–	0.694	0.442	0.45	0.628	–	0.866	0.704	0.614	0.667	–	–	–	–
HCC-366	0.109	0.988	0.501	0.773	1.08	–	0.787	0.0905	0.549	0.892	0.325	0.672	0.539	0.483	0.612	–	–	–	–
